Target: TetR(B) (Escherichia coli, UniProt P04483)
Test: GFP reporter induction in E. coli, Bayesian fit of two-domain thermodynamic model
Format: cell-based
Settings: 37 °C; LB culture; apparent Kd inferred from in vivo induction curve, K of active LBD set to 1 nM; order-of-magnitude model estimate, not a direct binding measurement; unreliable
Method: GFP reporter induction in E. coli, Bayesian fit of two-domain thermodynamic model on TetR(B) | apparent dissociation constant of WT TetR to ligand is calculated as […]

Sequence of TetR(B) (P04483 whole entry, looked up): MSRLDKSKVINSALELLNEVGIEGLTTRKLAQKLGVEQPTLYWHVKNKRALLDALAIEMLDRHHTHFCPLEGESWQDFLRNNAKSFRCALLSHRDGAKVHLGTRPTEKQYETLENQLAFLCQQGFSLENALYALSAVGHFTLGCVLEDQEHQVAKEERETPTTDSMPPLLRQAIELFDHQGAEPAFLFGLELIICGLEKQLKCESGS

## Cc1c2c(c(O)c3c(O)cccc13)C(=O)[C@]1(O)C(=O)C(C(N)=O)=C(O)[C@@H](N(C)C)[C@@H]1C2 [anhydrotetracycline]
  K apparent WT: 27.1 nM

Reference: PMC11152574, “A parameterized two-domain thermodynamic model explains diverse mutational effects on protein allostery” (eLife, 2024)
